Measured values as given in patent US5516525A, “Vitamin D derivative feed compositions and methods of use” (University of Georgia Research Foundation, Inc., priority 1994, dated 1996).
Like-named read-outs stand apart in the source and are kept apart here.

Experiments:
[1] = 16-day body weight and gain:feed (Example 2); type: in vivo, chicken (Peterson X Arbor Acre cockerels); details: D3 […], derivatives 10 μg/kg feed
Procedure: The basal diet used is described above in Table 2. Disulfiram was added to the basal diet of some chickens as indicated in Table 10 at a level of 30 mg/kg of feed. […]

^47 Ca retention = assay: 47Ca absorption and retention (Example 2); type: in vivo, chicken (Peterson X Arbor Acre cockerels); set-up: key to ^47 Ca intercept / Ca^47 Ret.: % of administered 47Ca retained (y-intercept of retention-vs-days plot); details: for Ca^47 Ret. / Ca^47 slope: Study 3; for Ca^47 Ret. / Ca^47 slope / ^47 Ca intercept / ^47 Ca slope: D3 […], derivatives 10 μg/kg feed; for ^47 Ca intercept / ^47 Ca slope: Study 2
Procedure: Absorption and retention of dietary calcium was measured by orally dosing chicks with ^47 Ca and then measuring the total body radioactive count, as described in Suso and Edwards, "A Study of Techniques for Measuring ^65 Zn Absorption and Biological Half-life in the Chicken," Poult. Sci. 47:991-999 (1968). Specifically, ten seven day old birds in one pen under the indicated dietary treatments were dosed orally with 0.5 milliliter of water solution containing 0.5 microcuries of ^47 Ca and 0.1 to 1.0 micrograms of calcium. The total body radioactive content of the individual chickens was determined immediately following dosing, and also on days 7, 9, 12 and 14 following dosing. A plot of percent administered ^47 Ca which was retained versus number of days yields a line which has a slope corresponding to the half-life of the radioactive calcium in the chicken, and a y-intercept that corresponds to the amount of calcium absorbed by the chicken. Effect of vitamin D3 derivatives on Tibial Dyschondroplasia.

tibial dyschondroplasia [2] = type: in vivo, chicken (Peterson X Arbor Acre cockerels); details: for #3/No. / % N2 + 3 / % N3: Study 3; for #3/No. / % N2 + 3 / % N3 / #3/total / % #3: D3 […], derivatives 10 μg/kg feed; for incidence and severity of tibial dyschondroplasia: in words, Example 2
Procedure: Deep irregularities are apparent.
(§1) The basal diet used is described above in Table 2. Disulfiram was added to the basal diet of some chickens as indicated in Table 10 at a level of 30 mg/kg of feed.
(§2) After the tibia was scored for incidence and severity of tibial dyschondroplasia, the left tibia was removed for a bone ash determination on the fat-free dried bone.

[3] = 9-day body weight, feed consumption and gain:feed (Example 1); details: in words, Example 1
Procedure: Newly hatched Petersen X Arbor Acre cockerels obtained from a commercial hatchery were used. Animals were housed in electrically heated Petersime battery brooders with wire-mesh floors located in a room in which the temperature was maintained at 22° C., fluorescent lights were on 24 hours each day in the room and the cages, and sunlight was present during the day from large windows. No attempt was made to limit the natural production of vitamin D3. Feed and water were available to the chickens at all times.
Ten newly hatched birds were randomly placed in each section of the Petersime batteries until the birds were nine days old. The measurements described below were calculated on a pen basis; all statistical analyses were conducted on pen averages. Blood samples were taken by cardiac puncture with heparinized syringes from one randomly chosen bird from each pen on the ninth day before weighing the birds.
At nine days of age, pen body weights were obtained for all birds and their feed consumption was recorded. […] Briefly, using a three week old chicken as the reference animal, a score of zero indicates normal cartilage which is narrow with little irregularities. […] Deep irregularities are apparent. A score of three indicates a large mass of cartilage in the proximal end of the tibia. The birds were also scored for phosphorus deficient rickets at the same time they were scored for tibial dyschondroplasia. Chickens which had normal proliferating prehypertrophied zone and a lengthened metaphyseal primary spongiosa were classified as phosphorus deficient rickets. The left tibia was removed for bone ash determination on the fat-free bone.

tibial dyschondroplasia [4] = details: cited from earlier work; for incidence of tibial dyschondroplasia: 20 ng/day, Edwards, J. Nutr. 114:1001 (1984); for tibial dyschondroplasia (effect of dietary factor): chickens, dietary level
bone ash [5] = assay: bone ash (Example 2); type: in vivo, chicken (Peterson X Arbor Acre cockerels); details: in words
Procedure: as §1, §2

bone ash [6] = assay: bone ash of left tibia (Example 1); details: in words
Text: The left tibia was removed for bone ash determination on the fat-free bone.

calcium = details: in vivo; cited from earlier work
[7] = Study 1, with disulfiram 30 mg/kg feed
[8] = Study 2, with disulfiram 30 mg/kg feed
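Wherever #3/No. is given: score 3 means a large cartilage mass in the proximal tibia.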
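Wherever #3/total is given: score 3 means a large cartilage mass in the proximal tibia.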
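Wherever % #3 is given: score 3 means a large cartilage mass in the proximal tibia.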
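Wherever % N3 is given: score 3 means a large cartilage mass in the proximal tibia.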

Compound | 16 Day Wt. ([1]; Study 3) | Gain/feed ([1]; Study 3) | 16 Day wt. ([1]; Study 4) | Gain/feed ([1]; Study 4) | Ca^47 Ret. (^47 Ca retention) | Ca^47 slope (^47 Ca retention) | #3/No. (tibial dyschondroplasia [2]) | % N2 + 3 (tibial dyschondroplasia [2]) [%] | % N3 (tibial dyschondroplasia [2]) [%] | #3/total (tibial dyschondroplasia [2]; Study 4) | % #3 (tibial dyschondroplasia [2]; Study 4) [%] | incidence and severity of tibial dyschondroplasia (tibial dyschondroplasia [2]) | 16 Day wt. [1, 7] | Gain:Feed [1, 7] | 16 day wt [1, 8] | Gain:Feed [1, 8] | ^47 Ca intercept (^47 Ca retention; with disulfiram 30 mg/kg feed) | ^47 Ca slope (^47 Ca retention; with disulfiram 30 mg/kg feed) | #3/total (tibial dyschondroplasia [2]; [8]) | tibial dyschondroplasia (effect of dietary factor) (tibial dyschondroplasia [4]) | other results
C=C1/C(=C\C=C2/CCC[C@]3(C)[C@@H]([C@H](C)CCC(O)C(C)(C)O)CC[C@@H]23)C[C@@H](O)C[C@@H]1O (stereo partly shown) [1,24,25-(OH)2 D3, 1,24,25-trihydroxycholecalciferol] | 428 | .688 | 376 | .681 | 76 | -.77 | 6/60 | 22 | 10 | 8/57 | 14 | significant reduction in the incidence of tibial dyschondroplasia |  |  |  |  |  |  |  |  | 
C=C1/C(=C\C=C2/CCC[C@]3(C)[C@@H]([C@H](C)CCCC(C)(C)O)CC[C@@H]23)C[C@@H](O)C[C@@H]1O [1,25-(OH)2 D3, 1,25-dihydroxycholecalciferol] | 421 | .66 | 355 | .652 | 78 | -.72 | 5/58 | 16 | 9 | 4/52 | 8 |  | 426 | .701 | 377 | .684 | 70 | -2.11 | 6/30 |  | 16 Day wt. ([1]; Study 1, basal diet): 421; Gain:Feed ([1]; Study 1, basal diet): .670; 16 day wt ([1]; Study 2, basal diet): 361; Gain:Feed ([1]; Study 2, basal diet): .661; nine day weight [3]: increased; ^47 Ca intercept (^47 Ca retention; basal diet): 84; ^47 Ca slope (^47 Ca retention; basal diet): -2.85; dietary ^47 Ca absorbed (^47 Ca retention; in words, Example 2): significantly more dietary ^47 Ca absorbed; half-life, or retention, of the calcium (^47 Ca retention; in words, Example 2): increasing the half-life; incidence of tibial dyschondroplasia (tibial dyschondroplasia [4]): no effect on the incidence of tibial dyschondroplasia; #3/total (tibial dyschondroplasia [2]; Study 1, basal diet): 1/29; #3/total (tibial dyschondroplasia [2]; [7]): 4/30; #3/total (tibial dyschondroplasia [2]; Study 2, basal diet): 2/30; bone ash (bone ash [5]): increases bone ash; bone ash (bone ash [6]): increased
C=C1/C(=C\C=C2/CCC[C@]3(C)[C@@H]([C@H](C)CC[C@@H](F)C(C)(C)O)CC[C@@H]23)C[C@@H](O)C[C@@H]1O [1,25-(OH)2-24R-FD3, 1,25-dihydroxy-24-fluorocholecalciferol] | 413 | .663 | 360 | .661 | 72 | -.47 | 3/60 | 15 | 5 | 9/56 | 16 | significant reduction in the incidence of tibial dyschondroplasia |  |  |  |  |  |  |  |  | 
[2H]C([2H])([2H])C(O)(CCC[C@@H](C)[C@H]1CC[C@H]2/C(=C/C=C3/C[C@@H](O)C[C@H](O)C3=C)CCC[C@]12C)C([2H])([2H])[2H] [1,25-(OH)2-26,27[^1 H]6 D3, 1,25-dihydroxy-26,27-hexadeuterocholecalciferol] | 422 | .687 | 360 | .646 | 80 | .15 | 0/60 | 8 | 0 | 4/58 | 7 | significant reduction in the incidence of tibial dyschondroplasia |  |  |  |  |  |  |  |  | 
C=C1/C(=C\C=C2/CCC[C@]3(C)[C@@H]([C@H](C)CCCC(C)C)CC[C@@H]23)C[C@@H](O)C[C@@H]1O [1-OHD3, 1-hydroxycholecalciferol] | 423 | .661 | 372 | .655 | 75 | -.95 | 3/60 | 17 | 5 | 8/57 | 15 | significant reduction in the incidence of tibial dyschondroplasia |  |  |  |  |  |  |  |  | nine day weight [3]: increased; bone ash (bone ash [6]): increased
C=C1CC[C@H](O)C/C1=C/C=C1\CCC[C@]2(C)[C@@H]([C@H](C)CCC(O)C(C)(C)O)CC[C@@H]12 (stereo partly shown) [24,25-(OH)2 D3, 24,25-dihydroxycholecalciferol, reference compound] | 424 | .696 | 351 | .663 | 67 | -.77 | 17/59 | 53 | 29 | 25/56 | 46 | not effective in preventing the development of tibial dyschondroplasia |  |  |  |  |  |  |  |  | nine day weight [3]: no effect; incidence of tibial dyschondroplasia (tibial dyschondroplasia [4]): no effect on the incidence of tibial dyschondroplasia; bone ash (bone ash [6]): no effect
C=C1CC[C@H](O)C/C1=C/C=C1\CCC[C@]2(C)[C@@H]([C@H](C)CCCC(C)(C)O)CC[C@@H]12 [25-OHD3, 25-hydroxycholecalciferol] |  |  |  |  |  |  |  |  |  |  |  | reduced the incidence of tibial dyschondroplasia | 398 | .706 | 395 | .728 | 74 | -1.67 | 11/28 |  | 16 Day wt. ([1]; Study 1, basal diet): 395; Gain:Feed ([1]; Study 1, basal diet): .667; 16 day wt ([1]; Study 2, basal diet): 392; Gain:Feed ([1]; Study 2, basal diet): .713; ^47 Ca intercept (^47 Ca retention; basal diet): 72; #3/total (tibial dyschondroplasia [2]; Study 1, basal diet): 1/28; #3/total (tibial dyschondroplasia [2]; Study 2, basal diet): 7/30
C=C1CC[C@H](O)C/C1=C/C=C1\CCC[C@]2(C)[C@@H]([C@H](C)CCCC(C)C)CC[C@@H]12 [D3, cholecalciferol, reference compound] | 434 | .709 | 383 | .701 | 75 | -1.13 | 13/59 | 34 | 22 | 20/58 | 35 |  | 432 | .708 | 374 | .666 | 72 | -1.97 | 12/30 |  | 16 Day wt. ([1]; Study 1, basal diet): 451; Gain:Feed ([1]; Study 1, basal diet): .734; 16 day wt ([1]; Study 2, basal diet): 368; Gain:Feed ([1]; Study 2, basal diet): .647; ^47 Ca intercept (^47 Ca retention; basal diet): 77; ^47 Ca slope (^47 Ca retention; basal diet): -1.88; #3/total (tibial dyschondroplasia [2]; Study 1, basal diet): 4/27; #3/total (tibial dyschondroplasia [2]; [7]): 9/27; #3/total (tibial dyschondroplasia [2]; Study 2, basal diet): 5/29
CCN(CC)C(=S)SSC(=S)N(CC)CC [Disulfiram, bis(diethylthiocarbamyl)disulfide, reference compound] |  |  |  |  |  |  |  |  |  |  |  |  | 433 | .750 | 394 | .671 | 73 | -1.59 | 14/28 |  | calcium absorption / loss (calcium): lowers the absorption of calcium; #3/total (tibial dyschondroplasia [2]; [7]): 16/30
CN(C)C(=S)SSC(=S)N(C)C [thiruram, bis(dimethylthiocarbamyl)disulfide, reference compound] |  |  |  |  |  |  |  |  |  |  |  |  |  |  |  |  |  |  |  | causes tibial dyschondroplasia | calcium absorption / loss (calcium): rapid loss of intramuscularly-injected calcium
calcium |  |  |  |  |  |  |  |  |  |  |  |  |  |  |  |  |  |  |  | retards development of the lesion | 
chloride |  |  |  |  |  |  |  |  |  |  |  |  |  |  |  |  |  |  |  | increased the incidence of the abnormality | 
magnesium |  |  |  |  |  |  |  |  |  |  |  |  |  |  |  |  |  |  |  | decrease the incidence of tibial dyschondroplasia | 
